Source: ChEMBL document CHEMBL1126203, “Synthesis and structure-activity relationships of a series of novel benzopyran-containing platelet activating factor antagonists” (J Med Chem, 1992)

Test system: Rattus norvegicus
Assay: Compounds were evaluated by intravenous administration along with 100 ug/kg of PAF in rat
Type: functional

## CCOC(=O)COc1cc(C(C)CCCc2ccc(F)cc2)cc2c1C1=C(CCN(CC(=O)NC)C1)C(C)(C)O2 (stereo unspecified)
  ED50: 0.6 mg/kg
